Assay results taken from the supplement of paper PMC10307832.

Legend:
Experiment in all cases: relative viability (nuclei count vs DMSO), 5 days (fraction); higher = more cells survive
Tozasertib + Foretinib = compound: Cc1cc(Nc2cc(N3CCN(C)CC3)nc(Sc3ccc(NC(=O)C4CC4)cc3)n2)n[nH]1 [Tozasertib] + COc1cc2c(Oc3ccc(NC(=O)C4(C(=O)Nc5ccc(F)cc5)CC4)cc3F)ccnc2cc1OCCCN1CCOCC1 [Foretinib] (partner 0.25 µM)
Method in brief: (§1)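 Medians of duplicate plates are given as relative viability. That measure is the nuclei count in treated wells divided by the count in vehicle wells. Counts were taken on 4× images of lung cancer cell lines in 1536-well plates, 5 days after pin-tool dosing the day after seeding with one drug alone or a fixed anchor-drug dose plus five library-drug doses (not always all listed) in √10 steps.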

Tozasertib + Linsitinib = compound: Cc1cc(Nc2cc(N3CCN(C)CC3)nc(Sc3ccc(NC(=O)C4CC4)cc3)n2)n[nH]1 [Tozasertib] + C[C@]1(O)C[C@@H](c2nc(-c3ccc4ccc(-c5ccccc5)nc4c3)c3c(N)nccn32)C1 [Linsitinib] (partner 1 µM)
Method in brief: as §1

Tozasertib + Pictilisib = compound: Cc1cc(Nc2cc(N3CCN(C)CC3)nc(Sc3ccc(NC(=O)C4CC4)cc3)n2)n[nH]1 [Tozasertib] + CS(=O)(=O)N1CCN(Cc2cc3nc(-c4cccc5[nH]ncc45)nc(N4CCOCC4)c3s2)CC1 [Pictilisib] (partner 1 µM)
Method in brief: as §1

Tozasertib = compound: Cc1cc(Nc2cc(N3CCN(C)CC3)nc(Sc3ccc(NC(=O)C4CC4)cc3)n2)n[nH]1 [Tozasertib]
Method in brief: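 For viability, nuclei in each treated well were divided by nuclei in vehicle wells and the median across plates was taken. Lung cancer cell lines in 1536-well plates were pinned with five library-drug doses (not always all listed) spaced by √10, cultured 5 days without medium change, and imaged at 4× after Hoechst staining, with plates passing only at control CV below 25% and at least one doubling.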

| Cell Line | relative viability (Tozasertib + Foretinib; first compound 0.01265 µM) | relative viability (Tozasertib + Foretinib; first compound 0.04 µM) | relative viability (Tozasertib + Foretinib; first compound 0.1265 µM) | relative viability (Tozasertib + Linsitinib; first compound 0.004 µM) | relative viability (Tozasertib + Linsitinib; first compound 0.01265 µM) | relative viability (Tozasertib + Linsitinib; first compound 0.04 µM) | relative viability (Tozasertib + Linsitinib; first compound 0.1265 µM) | relative viability (Tozasertib + Pictilisib; first compound 0.004 µM) | relative viability (Tozasertib + Pictilisib; first compound 0.01265 µM) | relative viability (Tozasertib + Pictilisib; first compound 0.04 µM) | relative viability (Tozasertib + Pictilisib; first compound 0.1265 µM) | relative viability (Tozasertib; 0.004 µM) | relative viability (Tozasertib; 0.01265 µM) | relative viability (Tozasertib; 0.04 µM) | relative viability (Tozasertib; 0.1 µM, anchor plate) | relative viability (Tozasertib; 0.1265 µM) | relative viability (Tozasertib + Foretinib; first compound 0.004 µM) |
| --- | --- | --- | --- | --- | --- | --- | --- | --- | --- | --- | --- | --- | --- | --- | --- | --- | --- |
| LOU-NH91 | 0.923 | 1.02 | 0.918 | 0.573 | 0.954 | 1.03 | 0.947 | 0.541 | 0.526 | 0.513 | 0.48 | 0.787 | 0.918 | 1.1 | 0.659 | 0.9 |  |
| NCI-H3122 | 0.94 | 0.977 | 0.944 | 0.994 | 0.997 | 0.962 | 1.05 | 0.626 | 0.49 | 0.656 | 0.61 | 0.965 | 0.976 |  | 0.421 | 1.01 | 0.969 |
| LK-2 | 0.927 | 1.34 | 0.267 | 0.639 | 0.541 | 0.442 | 0.272 | 0.715 |  | 0.61 | 0.359 | 1.09 | 0.847 | 1.09 | 0.176 | 0.489 | 1.51 |
| HOP-62 | 1.07 | 1.06 | 0.915 | 1.05 | 0.876 |  | 1.09 | 0.741 | 0.605 | 0.926 | 0.565 | 1.02 | 0.992 | 0.987 | 0.398 | 0.88 | 0.953 |
| 201T | 1.04 | 1.28 | 1.09 | 1.02 | 0.955 | 1.08 | 1.04 | 0.716 | 0.581 | 0.709 | 0.537 | 0.973 | 0.956 | 0.968 | 0.915 | 0.89 | 1.09 |
| LCLC-97TM1 | 0.895 | 0.95 | 0.695 |  | 0.204 | 0.155 | 0.163 |  | 0.181 | 0.222 | 0.11 | 1.07 | 0.94 | 0.906 | 0.236 | 0.396 | 1.03 |
| NCI-H2023 | 0.968 | 0.94 | 0.652 | 0.626 | 0.633 | 0.694 | 0.628 | 0.306 | 0.287 | 0.296 | 0.0957 | 0.999 | 0.985 | 1.14 | 0.369 | 0.605 | 0.747 |
| COR-L23 | 0.847 | 0.783 | 0.523 | 0.99 | 0.906 | 0.846 | 0.39 | 0.724 | 0.756 | 0.783 | 0.397 | 1.02 | 0.958 | 0.947 | 0.203 | 0.701 | 0.998 |
| NCI-H460 | 0.981 | 1.01 | 0.504 | 0.738 | 0.751 | 0.787 | 0.149 | 0.337 | 0.346 | 0.389 | 0.319 | 1.01 | 0.955 | 1.04 | 0.415 | 0.868 | 1.03 |
| H3255 | 0.698 | 0.868 | 0.706 | 0.862 | 0.758 | 1.04 | 0.817 |  | 0.463 | 0.533 | 0.413 | 1.07 | 0.854 | 0.966 | 0.721 | 0.833 | 1.43 |
| SW 1573 | 0.905 | 1.02 | 0.8 | 0.76 | 0.901 |  | 0.517 | 0.541 | 0.541 | 0.546 | 0.293 | 1.02 | 0.904 | 0.945 | 0.191 | 0.48 | 0.839 |
| NCI-H23 | 0.887 | 0.848 | 0.331 | 0.653 | 0.519 | 0.55 | 0.291 | 0.566 | 0.555 | 0.541 | 0.337 | 1.05 | 0.953 | 0.885 | 0.365 | 0.501 | 1.02 |
| NCI-H1755 | 0.455 | 0.893 | 0.743 | 0.976 | 0.948 | 0.999 | 0.865 | 0.422 | 0.395 | 0.444 | 0.232 | 1.03 | 0.994 | 1.04 | 0.577 | 0.953 | 0.984 |
| NCI-H358 | 0.617 | 0.545 | 0.106 | 0.787 | 0.69 | 0.651 | 0.194 | 0.353 | 0.263 | 0.366 | 0.178 | 1 |  | 0.977 | 0.109 | 0.37 | 0.736 |
| HCC-15 | 0.99 | 1.1 | 0.764 | 0.893 | 0.778 | 0.882 | 0.734 | 0.702 | 0.653 | 0.802 | 0.585 | 1.06 | 0.936 | 1.04 | 0.393 | 0.687 | 1.1 |
| NCI-H1915 | 1.02 | 1.06 | 0.862 | 1.1 | 1.06 |  | 1.05 | 1.06 | 0.862 | 0.872 | 0.635 | 1.04 | 0.986 | 0.934 | 0.435 | 0.795 | 1.16 |
| LXF-289 | 0.963 | 0.912 | 0.739 | 0.994 | 0.883 | 0.868 | 0.554 | 0.835 | 0.828 | 0.778 | 0.789 | 1 | 0.972 | 0.943 | 0.199 | 0.759 | 1.06 |
| COR-L 105 | 0.993 | 1 | 0.803 | 1.15 | 1.15 | 1.02 | 0.868 | 0.434 | 0.511 | 0.412 | 0.267 | 0.956 | 0.974 | 0.957 | 0.36 | 0.473 | 1.03 |
| NCI-H2126 | 1.24 | 1.29 | 1.12 | 0.623 | 0.728 | 0.825 | 0.716 | 0.505 | 0.529 | 0.532 | 0.426 | 0.996 | 1.06 | 1.04 | 0.846 | 0.925 | 1.19 |
